Test results: patent US11787788B2, “Benzimidazole derivatives, and pharmaceutical compositions and methods of use thereof” (CAPELLA THERAPEUTICS, INC., priority 2014, dated 2023)

Experiments:
Type in all cases: cell-based
[1] = tested on: H1975 human NSCLC adenocarcinoma cells; assay: Cell proliferation assay, drug-resistant mutant ERBB1 (T790M/L858R); conditions: for GI50: Homo sapiens, NCI-H1975, 72 hrs treatment, class symbols; for Selectivity Ratio (Wild-type ERBB1/Mutant ERBB1) A431/H1975: ratio of GI50 A431/H1975; for Selectivity Ratio (Wild-type ERBB1/Mutant ERBB1) HEKn/H1975: ratio of GI50 HEKn/H1975
Method: (§1) The biological activity of a test compound was determined using cell proliferation assays. The activity against wild-type ERBB1 was determined using A431 human epidermoid carcinoma cells (ATCC) and human epidermal keratinocytes, neonatal, or HEKn cells (ATCC).
(§2) A431 cells were grown in DMEM (Invitrogen) supplemented with 10% FBS (Lonza), 1% penicillin-streptomycin, and 2 mM glutamine (Invitrogen). HEKn cells were grown in EPILIFE® (Invitrogen) supplemented with HKGS (Invitrogen). HCC827 and H1975 were cultured in RPMI1640 supplemented with 10% FBS (Lonza), 1% penicillin-streptomycin, and 2 mM glutamine (Invitrogen). Cells were maintained and propagated at 37° C. and 5% CO2 in a humidified cell culture incubator. Aliquots of cells from early passages were preserved for liquid nitrogen storage. Frozen vials of cells were thawed at 37° C. water bath. Cells were spun to remove freezing medium. The newly revived frozen cells were adapted in culture for 10 days before used for compound testing. Cells used in the assay were less than 20 subculture passages or 3 months in culture.
(§3) The test compounds were dissolved in dimethylsulfoxide (DMSO) and stored at −20° C. before testing. […] The cells were placed in a culture incubator overnight. Next day, test compounds in DMSO were added to the cells and placed back in the culture incubator for 72 hrs. In the meantime, the cell numbers at time zero of the compound treatment (T0) was measured by ENERCOUNT® (Codex BioSolutions). At the end of the compound treatment, the cell numbers were again measured by EnerCount as T72 values. The untreated controls (Ctrl) were cell numbers recorded from the 0.1% DMSO treatment. The percent growth inhibition by the test compound was calculated by the formula: (1−(T72−T0)/(Ctrl−T0))×100.
(§4) The results are summarized in Tables 1 and 2, wherein A represents a value no greater than 500 nM, B represents a value greater than 500 nM but no greater than 1 μM, C represents a value greater than 1 μM but no greater than 5 μM, and D represents a value greater than 5 μM; and wherein A′ represents a ratio of greater than 10, B′ represents a ratio of no greater than 10 but no less than 5, C′ represents a ratio of no greater than 5 but no less than 2, and D′ represents a ratio of no greater than 2.

[2] = tested on: human epidermal keratinocytes, neonatal, or HEKn cells; assay: Cell proliferation assay, wild-type ERBB1; conditions: Keratinocyte, 72 hrs treatment
Method: as §1, §2, §3, §4

[3] = tested on: A431 human epidermoid carcinoma cells; assay: Cell proliferation assay, wild-type ERBB1; conditions: A-431, 72 hrs treatment, class symbols
Method: as §1, §2, §3, §4

[4] = tested on: HCC827 human NSCLC adenocarcinoma cells; assay: Cell proliferation assay, mutant ERBB1 (exon 19 deletion); conditions: for GI50: Homo sapiens, HCC827, 72 hrs treatment; for Selectivity Ratio (Wild-type ERBB1/Mutant ERBB1) A431/HCC827: ratio of GI50 A431/HCC827; for Selectivity Ratio (Wild-type ERBB1/Mutant ERBB1) HEKn/HCC827: ratio of GI50 HEKn/HCC827
Method: as §1, §2, §3, §4

GI50 [1] [nM] | GI50 [3] [nM] | GI50 ([4]; class symbols) [nM] | GI50 ([4]; numeric values, unit inferred) [nM] | SMILES | Selectivity Ratio (Wild-type ERBB1/Mutant ERBB1) A431/H1975 [1] | Selectivity Ratio (Wild-type ERBB1/Mutant ERBB1) HEKn/H1975 [1] | GI50 ([2]; class symbols) [nM] | Selectivity Ratio (Wild-type ERBB1/Mutant ERBB1) A431/HCC827 [4] | Selectivity Ratio (Wild-type ERBB1/Mutant ERBB1) HEKn/HCC827 [4] | GI50 ([2]; numeric values, unit inferred) [nM]
< 500 | < 500 | < 500 |  | C=CC(=O)N1CCCC[C@@H](n2c(NC(=O)c3ccnc(C)c3)nc3cccc(OC4CCN(CC)CC4)c32)C1 [Compound A1, (R)—N-(1-(1-Acryloylazepan-3-yl)-7-((1-ethylpiperidin-4-yl)oxy)-1H-benzo[d]imidazol-2-yl)-2-methylisonicotinamide] | A′ (A′ represents a ratio of greater than 10) | A′ (A′ represents a ratio of greater than 10) | 1000 to 5000 | A′ (A′ represents a ratio of greater than 10) | A′ (A′ represents a ratio of greater than 10) | 
< 500 | > 5000 | < 500 |  | C=CC(=O)N1CCC(Oc2cccc3nc(NC(=O)c4ccnc(C)c4)n([C@@H]4CCCCN(C(=O)C=C)C4)c23)CC1 [Compound A3, (R)—N-(1-(1-acryloylazepan-3-yl)-7-((1-acryloylpiperidin-4-yl)oxy)-1H-benzo[d]imidazol-2-yl)-2-methylisonicotinamide] | B′ (B′ represents a ratio of no greater than 10 but no less than 5) | A′ (A′ represents a ratio of greater than 10) | 1000 to 5000 | A′ (A′ represents a ratio of greater than 10) | A′ (A′ represents a ratio of greater than 10) | 

More lines, now with the values behind:

SMILES | GI50 [1] [nM] | GI50 [3] [nM] | GI50 ([4]; class symbols) [nM] | GI50 ([4]; numeric values, unit inferred) [nM] | Selectivity Ratio (Wild-type ERBB1/Mutant ERBB1) A431/H1975 [1] | Selectivity Ratio (Wild-type ERBB1/Mutant ERBB1) HEKn/H1975 [1] | GI50 ([2]; class symbols) [nM] | Selectivity Ratio (Wild-type ERBB1/Mutant ERBB1) A431/HCC827 [4] | Selectivity Ratio (Wild-type ERBB1/Mutant ERBB1) HEKn/HCC827 [4] | GI50 ([2]; numeric values, unit inferred) [nM]
Cc1cc(C(=O)Nc2nc3cc(OC(F)(F)F)cc(Cl)c3n2[C@@H]2CCCCN(C(=O)/C=C/CN(C)C)C2)ccn1 [Compound A5, (R,E)-N-(7-Chloro-1-(1-(4-(dimethylamino)but-2-enoyl)azepan-3-yl)-5-(trifluoromethoxy)-1H-benzo[d]imidazol-2-yl)-2-methylisonicotinamide] | < 500 | 1000 to 5000 | < 500 |  | C′ (C′ represents a ratio of no greater than 5 but no less than 2) | A′ (A′ represents a ratio of greater than 10) | 1000 to 5000 | A′ (A′ represents a ratio of greater than 10) | A′ (A′ represents a ratio of greater than 10) | 
C=CC(=O)Nc1cccc(Nc2nc(Nc3ccc(N4CCN(C(C)=O)CC4)cc3OC)ncc2C(F)(F)F)c1 [CO-1686, reference compound] |  |  |  | 32 |  | A′ (A′ represents a ratio of greater than 10) |  |  | A′ (A′ represents a ratio of greater than 10) | 2500
C=CC(=O)N1CCCC[C@@H](n2c(NC(=O)c3ccnc(C)c3)nc3cc(OC(F)(F)F)cc(Cl)c32)C1 [Compound A4, (R)—N-(1-(1-Acryloylazepan-3-yl)-7-chloro-5-(trifluoromethoxy)-1H-benzo[d]imidazol-2-yl)-2-methylisonicotinamide] | < 500 | 1000 to 5000 | < 500 |  | C′ (C′ represents a ratio of no greater than 5 but no less than 2) | C′ (C′ represents a ratio of no greater than 5 but no less than 2) | 1000 to 5000 | A′ (A′ represents a ratio of greater than 10) | A′ (A′ represents a ratio of greater than 10) | 
C=CC(=O)N1CCCC[C@@H](n2c(NC(=O)c3ccnc(C)c3)nc3cccc(OC4CCN(C(C)=O)CC4)c32)C1 [Compound A2, (R)—N-(7-((1-acetylpiperidin-4-yl)oxy)-1-(1-acryloylazepan-3-yl)-1H-benzo[d]imidazol-2-yl)-2-methylisonicotinamide] | < 500 | 500 to 1000 | < 500 |  | B′ (B′ represents a ratio of no greater than 10 but no less than 5) | A′ (A′ represents a ratio of greater than 10) | > 5000 | A′ (A′ represents a ratio of greater than 10) | A′ (A′ represents a ratio of greater than 10) | 
